Values of other authors, collected in patent US10398729B2, “Method for treating Alzheimer's disease” (priority 2012, dated 2019).

How the values were obtained:
[1] = system: patients with mild-to-moderate AD
[2] = system: primary human fibroblast cells (IMR-90); conditions: IMR-90 cells in vitro
hepatoma cells SMMC-7721 = conditions: 20.0 μmol/L chromic chloride
[3] = system: elderly adults with early memory decline
brain functions = conditions: prolonged intranasal administration

C=C1/C(=C\C=C2/CCC[C@]3(C)[C@@H]([C@H](C)CCCC(C)(C)O)CC[C@@H]23)C[C@@H](O)C[C@@H]1O [1,25D3, 1alpha,25-dihydroxyvitamin D3]
apoptosis (macrophages): protecting against apoptosis
Abeta phagocytosis and clearance (macrophages; studied in combination with curcuminoids): strongly stimulated

CCCCCCCC(=O)OCC(COC(=O)CCCCCCC)OC(=O)CCCCCCC [AC-1202]
memory and cognition [1]: improves memory and cognition

CC(C)(C)NO [N-tert-butylhydroxylamine (NtBHA), N-tert-butylhydroxylamine]
senescence-related and H2O2-stimulated iron accumulation [2]: attenuated

[Cl][Cr]([Cl])[Cl] [chromic chloride]
telomere lengths (hepatoma cells SMMC-7721): remarkably extended the telomere lengths

chromium picolinate
cognitive performance and brain function [3]: can improve cognitive performance and brain function

insulin
memory and mood (brain functions): improving memory and mood
systemic side effects (brain functions): absence of systemic side effects
